In brackets after ≈: the same amount, converted by molar mass.
Columns and labels:
Format in all cases: functional
MT4 [1] = assay: Compound was tested in vitro for Minimum inhibitory concentration required to reduce CMV(AD-169) induced cytopathicity in Human MT-4 cells
MT4 [2] = assay: Compound was tested in vitro for Minimum inhibitory concentration required to reduce CMV(Davis) induced cytopathicity in Human MT-4 cells
MT4 [3] = assay: Compound was tested in vitro for Minimum inhibitory concentration required to reduce VZV TK+(OKA) induced cytopathicity in Human MT-4 cells
MT4 [4] = assay: Compound was tested in vitro for Minimum inhibitory concentration required to reduce VZV TK+(YS) induced cytopathicity in Human MT-4 cells
MT4 [5] = assay: Compound was tested in vitro for Minimum inhibitory concentration required to reduce VZV TK-(YS/R) induced cytopathicity in Human MT-4 cells
HEL [6] = assay: Compound was tested in vitro for Minimum inhibitory concentration required to reduce VZV TK+(OKA) induced cytopathicity in HEL cells; settings: Homo sapiens
HEL [7] = assay: Compound was tested in vitro for Minimum inhibitory concentration required to reduce CMV(AD-169) induced cytopathicity in HEL cells; settings: Homo sapiens
HEL [8] = assay: Compound was tested in vitro for Minimum inhibitory concentration required to reduce CMV(Davis) induced cytopathicity in HEL cells; settings: Homo sapiens
HEL [9] = assay: Compound was tested in vitro for Minimum inhibitory concentration required to reduce VZV TK+(YS) induced cytopathicity in HEL cells; settings: Homo sapiens
HEL [10] = assay: Minimum inhibitory concentration required to reduce VZV TK-(07-1) induced cytopathicity in HEL cells; settings: Homo sapiens
HEL [11] = assay: Compound was tested in vitro for Minimum inhibitory concentration required to reduce VZV TK-(YS/R) induced cytopathicity in HEL cells; settings: Homo sapiens
HEL [12] = assay: Compound was tested in vitro for Minimum inhibitory concentration required to reduce CMV (AD-169) induced cytopathicity in HEL cells; settings: Homo sapiens
E6SM = assay: Compound was tested in vitro for minimum inhibitory concentration required to reduce HSV-1(KOS) induced cytopathicity in E6SM cells; settings: Homo sapiens
C3H/3T3 = assay: Compound was tested in vitro for Minimum inhibitory concentration required to reduce MSV induced cytopathicity in murine C3H/3T3 embryo fibroblasts; settings: Mus musculus
MT4 [13] = assay: Compound was tested in vitro for minimum inhibitory concentration required to reduce HSV-1(KOS) induced cytopathicity in Human MT-4 cells
MT4 [14] = assay: Compound was tested in vitro for Minimum inhibitory concentration required to reduce HSV-1 TK-(B2006) induced cytopathicity in Human MT-4 cells
MT4 [15] = assay: Minimum inhibitory concentration required to reduce VZV TK-(07-1) induced cytopathicity in Human MT-4 cells
MT4 [16] = assay: Compound was tested in vitro for Minimum inhibitory concentration required to reduce HSV-2(ROD) induced cytopathicity in Human MT-4 cells
MT4 [17] = assay: Compound was tested in vitro for Minimum inhibitory concentration required to reduce HSV-1(IIIb) induced cytopathicity in Human MT-4 cells
HEL [18] = assay: Compound was tested in vitro for Minimum inhibitory concentration required to reduce VZV TK-(07-1) induced cytopathicity in HEL cells; settings: Homo sapiens

Compound	MIC (MT4 [1]) [µg/mL]	MIC (MT4 [2]) [µg/mL]	MIC (MT4 [3]) [µg/mL]	MIC (MT4 [4]) [µg/mL]	MIC (MT4 [5]) [µg/mL]	MIC (HEL [6]) [µg/mL]	MIC (HEL [7]) [µg/mL]	MIC (HEL [8]) [µg/mL]	MIC (HEL [9]) [µg/mL]	MIC (HEL [10]) [µg/mL]	MIC (HEL [11]) [µg/mL]	further results
NCC(Cn1cnc2c(N)ncnc21)OCP(=O)(O)O (stereo unspecified)	15 (≈ 49.6 µM)	35 (≈ 116 µM)	11 (≈ 36.4 µM)	7 (≈ 23.2 µM)	7 (≈ 23.2 µM)	–	–	–	–	–	–	–
CN(C)CC(Cn1cnc2c(N)ncnc21)OCP(=O)(O)O (stereo unspecified)	–	–	–	–	–	> 20000	> 20000	> 20000	> 20000	> 20000	> 20000	–
Nc1ncnc2c1ncn2CC(CNC(=O)c1ccccc1C(=O)O)OCP(=O)(O)O (stereo unspecified)	–	–	–	–	–	> 50000	> 50000	> 50000	> 50000	> 50000	> 50000	–
C[N+](C)(C)CC(Cn1cnc2c(N)nc(N)nc21)OCP(=O)(O)O (stereo unspecified)	–	–	–	–	–	–	–	–	> 50000	–	–	MIC (HEL [12]): > 50000 µg/mL
Nc1ncnc2c1ncn2CC(CN1CCOCC1)OCP(=O)(O)O (stereo unspecified)	–	–	–	–	–	> 50000	> 50000	> 50000	> 50000	> 50000	> 50000	MIC (E6SM): 70000 µg/mL (≈ 188000 µM); MIC (C3H/3T3): 25000 µg/mL (≈ 67100 µM)
Nc1nc(N)c2ncn(CC(CNC(=O)c3ccccc3C(=O)O)OCP(=O)(O)O)c2n1 (stereo unspecified)	–	–	–	–	–	> 50000	> 50000	> 50000	> 50000	> 50000	> 50000	–
Nc1ncnc2c1ncn2C[C@@H](CO)OCP(=O)(O)O	0.15 (≈ 0.495 µM)	0.2 (≈ 0.66 µM)	0.03 (≈ 0.0989 µM)	0.05 (≈ 0.165 µM)	0.01 (≈ 0.033 µM)	–	–	–	–	–	–	MIC (MT4 [13]): 0.2 µg/mL (≈ 0.66 µM); MIC (MT4 [14]): 0.1 µg/mL (≈ 0.33 µM); MIC (MT4 [15]): 0.04 µg/mL (≈ 0.132 µM); MIC (MT4 [16]): > 20 µg/mL; MIC (MT4 [17]): > 20 µg/mL
C[N+](C)(C)CC(Cn1cnc2c(O)nc(N)nc21)OCP(=O)(O)O (stereo unspecified)	–	–	–	–	–	> 50000	> 50000	–	> 50000	–	–	–
C[N+](C)(C)CC(Cn1cnc2c(N)ncnc21)OCP(=O)(O)O (stereo unspecified)	–	–	–	–	–	> 50000	> 50000	> 50000	> 50000	–	–	MIC (HEL [18]): > 50000 µg/mL
Nc1ncnc2c1ncn2CCOCP(=O)(O)O [ADEFOVIR]	28 (≈ 102 µM)	29 (≈ 106 µM)	25 (≈ 91.5 µM)	31 (≈ 113 µM)	14 (≈ 51.2 µM)	–	–	–	–	–	–	MIC (MT4 [13]): 7 µg/mL (≈ 25.6 µM); MIC (MT4 [14]): 20 µg/mL (≈ 73.2 µM); MIC (MT4 [15]): 14 µg/mL (≈ 51.2 µM); MIC (MT4 [16]): 1.5 µg/mL (≈ 5.49 µM); MIC (MT4 [17]): 1.5 µg/mL (≈ 5.49 µM)

— ChEMBL document CHEMBL1129276, “Synthesis of 2'-aminomethyl derivatives of N-(2-(phosphonomethoxy)ethyl) nucleotide analogues as potential antiviral agents” (1996)
